Molecules are shown by their SMILES. Counter-ions that a name gives are not always drawn.

T1 sequence (P47898 whole entry): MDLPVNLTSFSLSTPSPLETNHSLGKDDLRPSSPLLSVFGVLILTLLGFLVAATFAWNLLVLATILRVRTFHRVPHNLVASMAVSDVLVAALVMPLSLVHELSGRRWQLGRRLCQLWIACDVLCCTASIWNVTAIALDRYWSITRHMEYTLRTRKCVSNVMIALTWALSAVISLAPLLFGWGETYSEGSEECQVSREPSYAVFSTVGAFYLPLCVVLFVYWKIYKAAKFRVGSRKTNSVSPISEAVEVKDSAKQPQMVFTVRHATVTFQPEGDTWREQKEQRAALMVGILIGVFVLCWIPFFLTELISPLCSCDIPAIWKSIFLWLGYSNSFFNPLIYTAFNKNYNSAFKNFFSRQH

This assay addresses T1, human 5-HT5A receptor (Homo sapiens, UniProt P47898).
T1 construct: expressed in transfected cells; membrane preparation
The assay is described as follows: Test on a human 5-HT5A receptor binding inhibition ([3H]5-CT). Conditions: membrane from HEK293 cells expressing human 5-HT5A receptor; Ki calculated from IC50 and Kd 4.95 nM. As to the method:
Acquisition of HEK293 cells for forced expressions of a human 5-HT5A receptor
The ORF (open reading frame; protein coding region) of a human 5-HT5A receptor (Genbank AF498985) was cloned from a human hippocampus cDNA library, and then inserted into a pCR2.1 vector (Invitrogen), and Escherichia coli containing the plasmid was cultured in a large amount. Next, the full-length cDNA sequence of the human 5-HT5A receptor was analyzed, and recombined into a pcDNA3.1 vector (Invitrogen) as an expression vector and cultured in a large amount. HEK293 established cells (ATCC) derived from the human fetal kidney were seeded, the expression plasmid (1 μg) obtained above were added thereto with LIPOFECTAMINE 2000 (Invitrogen; 2 μl), the gene was transfected into HEK293 cells, and the expression cells were screened with a drug-resistant marker, Geneticin (G418 sulfate 500 μg/ml; Kanto Chemical Co., Inc.). Thus prepared recombinant cells which express the gene were cultured in a medium containing D-MEM (Dulbecco's modified eagle medium, Sigma), 10% FCS (Fetal calf serum: fetal bovine serum), 1% Pc./Sm (Penicillin/Streptomycin, Invitrogen), and 500 μg/ml G418 for 3 days. These experimental operations follow an manual for gene operation experiment and an instruction appended in a reagent, and the like, such as a known method (Sambrook, J. et al, Molecular Cloning—A Laboratory Manual”, Cold Spring Harabor laboratory, NY, 1989).
(1) Preparation of a Membrane from HEK293 Cells for Forced Expressions of a Human 5-HT5A Receptor
HEK293 cells for forced expressions of a human 5-HT5A receptor were cultured in a F500 plate, and scraped with a scraper. After centrifugation, a precipitate was collected, and an incubation buffer (50 mM Tris (HCl) (pH 7.4), 10 mM MgSO4, and 0.5 mM EDTA (ethylenediamine tetraacetic acid)) were added thereto. After homogenization, it was further centrifuged, and the precipitate was added with the incubation buffer, followed by thoroughly suspending. This operation was repeated, and a protein concentration was measured, thereby completing the preparation of a membrane.
(2) Test on a Human 5-HT5A Receptor Binding Inhibition
A solution of a compound to be tested and 100 μM 5-CT (5-carboxamidetriptamine) in DMSO was added to a 96-well plate at 2 μl/well, and suspended in an incubation buffer, and a membrane from HEK293 cells for forced expressions of a human 5-HT5A receptor prepared at 200 μg/ml was added at 100 μl/well. After incubation at room temperature for 15 minutes, a [^3H]5-CT solution (2 nM [^3H]5-CT, incubation buffer) was added thereto at 100 μl/well.
Separately, 100 μl of the solution was distributed into a liquid scintillation vial, and 2 ml of Aquasol II (registered trademark) was added thereto, followed by stirring. Then, a radioactivity was measured by a liquid scintillation counter. It was incubated at 37° C. for 60 minutes. The reaction mixture was sucked into 96-well GF/C filter plate that had been pre-treated with 0.2% polyethyleneimine, and washed six times with an ice-cooled, 50 mM Tris (pH 7.5) buffer. The GF/C filter plate was dried.
Microscint TMPS (registered trademark) was added thereto at 40 μl/well. A radioactivity remaining on the GF/C filter plate was measured by a top counter.
The [^3H]5-CT binding inhibiting activity by the compound to be tested in each experiment was determined as an IC50 value with a radioactivity upon addition of DMSO alone being 0% inhibition, and a radioactivity upon addition of 1 μM 5-CT being 100% inhibition. Separately, a Ki value was calculated from the Kd value of the [^3H]5-CT determined from Scatchard analysis, by the following equation.
Ki=IC50(1+Concentration of ligands added/Kd(4.95 nM))
For orientation: Ki means the dissociation constant of the complex between target and ligand, obtained from inhibition or displacement. Take `NC(N)=NC(=O)c1ccc2scc(-c3ccncc3)c2c1` [Example 3-37]: the Ki was 30 to 300 nM.
In the case of `COc1ccc(C2=CCCc3ccc(C(=O)N=C(N)N)cc32)c(C#N)c1` [Example 2-68] it was 30 to 300 nM.
Consider `NC(N)=NC(=O)c1ccc2c(c1)C(c1ccccc1[N+](=O)[O-])=CCC2` [Example 2-46], for which the inhibitory constant (Ki) was 3 to 30 nM.
The same measure for `NC(N)=NC(=O)c1ccc2c(c1)C(c1cc(C(F)(F)F)ccc1F)=CCO2` [Example 1-65]: 3 to 30 nM; for `COc1cc(F)c(F)cc1C1=CCOc2ccc(C(=O)N=C(N)N)cc21` [Example 1-79]: 3 to 30 nM; for `NC(N)=NC(=O)c1ccc2scc(-c3c(F)cc(F)cc3F)c2c1` [Example 3-14]: 0.3 to 3 nM.
As for `NC(N)=NC(=O)c1ccc2c(c1)C(c1c(Cl)cncc1Cl)=CCC2` [Example 2-190], the Ki is 3 to 30 nM.
In the case of `CCOc1ccccc1C1=CCCc2ccc(C(=O)N=C(N)N)cc21` [Example 2-44] it was 30 to 300 nM.
`NC(N)=NC(=O)c1ccc2c(c1)C(c1ccncc1F)=CCC2` [Example 2-158]: the Ki was 0.3 to 3 nM.
As to `NC(N)=NC(=O)c1ccc2c(c1)C(c1cccc(O)c1)=CCC2` [Example 2-51], the inhibition constant (Ki) is 0.3 to 3 nM.
In the case of `NC(N)=NC(=O)c1ccc2scc(-c3ccccc3O)c2c1` [Example 3-29], the Ki is 0.3 to 3 nM.
In the case of `CC1(C)CC=C(c2ccccc2)c2cc(C(=O)N=C(N)N)ccc21` [Example 2-80], the Ki is 30 to 300 nM.
`CC1(C)CCC(c2c(F)cc(F)cc2F)c2cc(C(=O)N=C(N)N)ccc21` (stereo not drawn) [Example 3-34]: the Ki is 30 to 300 nM.
Turning to `N#Cc1cc(F)ccc1C1=CCCc2ccc(C(=O)N=C(N)N)cc21` [Example 2-57], the Ki is 3 to 30 nM.
Consider `CC1(C)C=C(c2ccc(F)cc2F)c2cc(C(=O)N=C(N)N)ccc2O1` [Example 1-105], for which the Ki was 3 to 30 nM.
In the case of `COc1ccccc1C1=CC(C)(C)Oc2ccc(C(=O)N=C(N)N)cc21` [Example 1-01, N-(diaminomethylene)-4-(2-methoxyphenyl)-2,2-dimethyl-2H-chromene-6-carboxamide hydrochloride] it was 30 to 300 nM; in that of `COc1cccc(C2=CCCc3ccc(C(=O)N=C(N)N)cc32)c1` [Example 2-05], 3 to 30 nM.
Regarding `CC1(C)C=C(c2ccc(F)c(F)c2F)c2cc(C(=O)N=C(N)N)ccc2O1` [Example 1-119], the Ki was 30 to 300 nM.
`COc1cc(F)c(C2=C(C)CCc3ccc(C(=O)N=C(N)N)cc32)c(F)c1` [Example 2-178]: the Ki is 0.3 to 3 nM.
Regarding `NC(N)=NC(=O)c1ccc2c(c1)C(c1cncc(Cl)c1)=CCC2` [Example 2-150], the Ki is 30 to 300 nM.
Turning to `NC(N)=NC(=O)c1ccc2c(c1)C(c1ccccc1Oc1ccccc1)=CCC2` [Example 2-33], the Ki is 30 to 300 nM.
Regarding `CC1(C)C=C(c2c(F)cccc2F)c2cc(C(=O)N=C(N)N)ccc2O1` [Example 1-109], the Ki was 3 to 30 nM.
Regarding `NC(N)=NC(=O)c1ccc2c(c1)C(c1ccccc1)=C(F)CO2` [Example 1-14], the Ki is 0.97 nM.
In the case of `NC(N)=NC(=O)c1ccc2c(c1)C(c1cccc(F)c1Cl)=CCC2` [Example 2-168], the Ki is 0.3 to 3 nM.
Take `COc1ccc(C2=CCCc3ccc(C(=O)N=C(N)N)cc32)c(OC)n1` [Example 2-173]: the Ki was 3 to 30 nM.
As to `NC(N)=NC(=O)c1ccc2c(c1)C(c1c(F)cc(F)cc1F)=CCS2` [Example 3-16], the Ki is 0.3 to 3 nM.
In the case of `NC(N)=NC(=O)c1ccc2c(c1)C(c1c(F)ccc(F)c1F)=CCC2` [Example 2-99], the Ki was 0.3 to 3 nM.
The same measure for `CCOc1ccc(C2=CCCc3ccc(C(=O)N=C(N)N)cc32)cc1` [Example 2-87]: 3 to 30 nM; for `NC(N)=NC(=O)c1ccc2c(c1)C(c1ccc(F)cc1)=C(F)CC2` [Example 2-96]: 0.3 to 3 nM.
The same measure for `NC(N)=NC(=O)c1ccc2c(c1)C(c1cccs1)=CCC2` [Example 2-21]: 0.3 to 3 nM.
Consider `N#Cc1ccc(F)cc1C1=CCCc2ccc(C(=O)N=C(N)N)cc21` [Example 2-175], for which the Ki is 30 to 300 nM.
Turning to `NC(N)=NC(=O)c1ccc2c(c1)C(c1ccccc1)=C(F)CC2` [Example 2-43], the Ki was 0.3 to 3 nM.
On to `NC(N)=NC(=O)c1ccc2scc(-c3cccnc3)c2c1` [Example 3-32], for which the Ki was 30 to 300 nM.
As for `NC(N)=NC(=O)c1ccc2c(c1)C(c1cc(F)ccc1Cl)=CCC2` [Example 2-169], the Ki was 3 to 30 nM.
Turning to `COc1ccccc1-c1c(C)sc2ccc(C(=O)N=C(N)N)cc12` [Example 3-33], the Ki is 0.3 to 3 nM.
In the case of `NC(N)=NC(=O)c1ccc2c(c1)C(c1cccc(C(F)(F)F)c1)=CCO2` [Example 1-52] it was 3 to 30 nM; in that of `NC(N)=NC(=O)c1ccc2c(c1)C(c1c(F)cccc1Cl)=CCO2` [Example 1-96], 0.3 to 3 nM; in that of `NC(N)=NC(=O)c1ccc2c(c1)C(c1cccnc1Cl)=CCC2` [Example 2-176], 3 to 30 nM.
Consider `NC(N)=NC(=O)c1ccc2c(c1)C(c1ccc(Cl)cc1F)=CCO2` [Example 1-54], for which the Ki was 0.3 to 3 nM.
On to `N/C(=N\C(=O)c1ccc2c(c1)C(c1c(F)cccc1F)=CCO2)NCC1CC1` [Example 1-76], for which the Ki is 3 to 30 nM.
For the compound `CC1C=C(c2cccnc2F)c2cc(C(=O)N=C(N)N)ccc2O1` (stereo not drawn) [Example 1-134], the inhibition constant (Ki) is 30 to 300 nM.
On to `COc1ccc(F)cc1-c1csc2ccc(C(=O)N=C(N)N)cc12` [Example 3-28], for which the Ki is 3 to 30 nM.
Consider `CC1C=C(c2c(F)cc(F)cc2F)c2cc(C(=O)N=C(N)N)ccc2O1` (stereo not drawn) [Example 1-71], for which the Ki is 0.3 to 3 nM.
For the compound `CN(C)Cc1ccc(C2=CCCc3ccc(C(=O)N=C(N)N)cc32)cc1` [Example 2-32], the Ki was 3 to 30 nM.
For `N#Cc1ccc(C2=CCCOc3ccc(C(=O)N=C(N)N)cc32)cc1` [Example 3-13], the Ki is 3 to 30 nM.
In the case of `CC(C)Oc1ccccc1C1=CCCc2ccc(C(=O)N=C(N)N)cc21` [Example 2-45], the Ki is 30 to 300 nM.
For the compound `NC(N)=NC(=O)c1ccc2c(c1)C(c1nccs1)=CCC2` [Example 2-93], the Ki is 30 to 300 nM.
`CC1(C)C=C(c2ccc(F)cc2)c2cc(C(=O)N=C(N)N)ccc2O1` [Example 1-110]: the Ki is 30 to 300 nM.
Take `NC(N)=NC(=O)c1ccc2c(c1)C(c1c(F)cc(F)cc1F)=CCC2` [Example 2-60]: the Ki was 0.3 to 3 nM.
As to `CC1=C(c2ccc(F)cc2C)c2cc(C(=O)N=C(N)N)ccc2CC1` [Example 2-163], the Ki was 0.3 to 3 nM.
Turning to `NC(N)=NC(=O)c1ccc2c(c1)C(c1c(F)cc(F)cc1F)=CCCC2` [Example 3-05], the Ki is 3 to 30 nM.
Take `CC1C=C(c2c(F)cccc2F)c2cc(C(=O)N=C(N)N)ccc2O1` (stereo not drawn) [Example 1-126]: the Ki was 3 to 30 nM.
As to `NC(N)=NC(=O)c1ccc2c(c1)C(c1ccc(F)c(Cl)c1)=CCO2` [Example 1-80], the Ki was 3 to 30 nM.
In the case of `NC(N)=NC(=O)c1ccc2c(c1)C(c1cccc(Cl)c1F)=CCO2` [Example 1-81], the Ki was 0.3 to 3 nM.
The same measure for `COc1cc(F)c(C2=CCCc3ccc(C(=O)N=C(N)N)cc32)c(F)c1` [Example 2-94]: 3 to 30 nM; for `NC(N)=NC(=O)c1ccc2c(c1)C(c1ccccc1)=CCCO2` [Example 3-10]: 3 to 30 nM.
As to `CC1C=C(c2ccsc2)c2cc(C(=O)N=C(N)N)ccc2O1` (stereo not drawn) [Example 1-167], the Ki was 3 to 30 nM.
In the case of `NC(N)=NC(=O)c1ccc2c(c1)C(c1cc(Cl)c(F)cc1F)=CCC2` [Example 2-136], the Ki is 3 to 30 nM.
In the case of `COc1ccccc1-c1c(C#N)sc2ccc(C(=O)N=C(N)N)cc12` [Example 3-39], the Ki is 3 to 30 nM.
As to `NC(N)=NC(=O)c1ccc2c(c1)C(c1ccc(Oc3ccccc3)cc1)=CCC2` [Example 2-07], the Ki was 30 to 300 nM.
